Measured values from patent US20220324835A1 (Nurix Therapeutics, Inc., priority 2018, published 2022).

Tests used:
Cbl-b [1] = biological target: T1, Cbl-b (Homo sapiens, UniProt Q13191); experiment: Cbl-b activity assay (Cbl-b inhibition assay), TR-FRET of Cbl-b interaction with UbcH5B-Ub; type: biochemical; settings: assay buffer with 100 mM NaCl, 60 nM Src kinase; read-out: Cbl-b activity IC50
In short: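 Compound-treated Cbl-b was incubated 1.5 h with Src kinase (60 nM final; 30 nM for asterisked values, which also used 50 mM instead of 100 mM NaCl), 1 mM ATP and 5 mM MgCl2. Binding to fluorescent Ub-loaded UbcH5B (C85K mutant) was then read by TR-FRET after 1 h more.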

T-cell [2] = experiment: CD25 cell surface staining on T-cells stimulated with anti-CD3 antibody alone (Biological Example 2); type: cell-based; settings: primary human total T-cells, baseline = anti-CD3/anti-CD28 stimulated cells without inhibitor, read-out: CD25 staining, Anti-CD3 stimulation, fold change over baseline; for fold induction at 1 µM: 1 μM compound; for fold induction at 8 µM: 8 μM compound
T-cell [3] = experiment: CD25 cell surface staining on T-cells co-stimulated with anti-CD3 and anti-CD28 antibody (Biological Example 2); type: cell-based, human; settings: Homo sapiens, T-cell, primary human total T-cells, baseline = anti-CD3/anti-CD28 stimulated cells without inhibitor, read-out: CD25 staining, Anti-CD3/Anti-CD28 stimulation, fold change over baseline; for fold induction at 0.3 µM: 0.3 μM compound; for fold induction at 1 µM: 1 μM compound; for fold induction at 4 µM: 4 μM compound
In short: (§1)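 Values are fold-change over baseline: readings (IL-2 release, CD25 staining) from inhibitor-treated T-cells divided against untreated cells […]. No detailed procedure stated.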

T-cell [4] = experiment: IL-2 secretion from T-cells co-stimulated with anti-CD3 and anti-CD28 antibody (Biological Example 2); type: cell-based, human; settings: Homo sapiens, T-cell, primary human total T-cells, baseline = anti-CD3/anti-CD28 stimulated cells without inhibitor, read-out: IL-2 secretion, Anti-CD3/Anti-CD28 stimulation, fold change over baseline; for fold induction at 0.3 µM: 0.3 μM compound; for fold induction at 1 µM: 1 μM compound; for fold induction at 4 µM: 4 μM compound
In short: as §1

T-cell [5] = experiment: IL-2 secretion from T-cells stimulated with anti-CD3 antibody alone (Biological Example 2); type: cell-based; settings: primary human total T-cells, read-out: IL-2 secretion, Anti-CD3 stimulation, fold change over baseline; for fold induction at 1 µM: 1 μM compound; for fold induction at 8 µM: 8 μM compound
Cbl-b [6] = biological target: T1, Cbl-b; experiment: Cbl-b inhibition assay (Cbl-b activity assay, FRET, Biological Example 1; 100 mM NaCl, 60 nM Src kinase); type: biochemical; settings: upper bound stated in text lists; read-out: IC50 values in the Cbl-b inhibition assay of Biological Example 1
In short: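 TR-FRET assay using N-terminal biotinylated Avi-tagged Cbl-b bound to streptavidin-terbium, Src kinase for Cbl-b phosphorylation, and UbcH5B irreversibly conjugated to Bodipy-Fluorescein-ubiquitin. Phosphorylated Cbl-b binds UbcH5B-Ub, bringing the fluorophores together; inhibition is read as loss of FRET signal.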

T1 sequence (Q13191 36-427): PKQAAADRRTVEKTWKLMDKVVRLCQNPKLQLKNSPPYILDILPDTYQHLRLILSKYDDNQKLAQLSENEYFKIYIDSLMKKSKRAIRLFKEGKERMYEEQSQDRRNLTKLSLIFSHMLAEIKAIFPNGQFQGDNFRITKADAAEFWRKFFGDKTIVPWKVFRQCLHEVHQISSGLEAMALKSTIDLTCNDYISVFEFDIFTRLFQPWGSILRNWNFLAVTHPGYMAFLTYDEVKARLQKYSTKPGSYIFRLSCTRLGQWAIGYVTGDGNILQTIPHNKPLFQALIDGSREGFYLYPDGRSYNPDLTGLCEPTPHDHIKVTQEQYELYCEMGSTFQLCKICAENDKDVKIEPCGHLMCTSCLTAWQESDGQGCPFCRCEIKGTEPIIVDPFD

Row | SMILES | IC50 (Cbl-b [1]) [nM] | fold induction at 1 µM (T-cell [2]) | fold induction at 0.3 µM (T-cell [3]) | fold induction at 1 µM (T-cell [3]) | fold induction at 0.3 µM (T-cell [4]) | fold induction at 1 µM (T-cell [4]) | fold induction at 1 µM (T-cell [5]) | IC50 (Cbl-b [6]) [nM] | fold induction at 8 µM (T-cell [2]) | fold induction at 4 µM (T-cell [3]) | fold induction at 4 µM (T-cell [4]) | fold induction at 8 µM (T-cell [5])
1 | Cn1cnnc1CC1(c2cccc(N3Cc4c(cc(CN5CC[C@H]6C[C@H]65)cc4C(F)(F)F)C3=O)c2)COC1 (single isomer, unassigned) [Compound 486a] | < 100 | > 1 | 1.51 to 1.75 | 1.51 to 1.75 | > 7.5 | > 7.5 | > 0.201 | ≤ 100 | – | – | – | –
2 | Cn1cnnc1CC1(c2cccc(N3Cc4c(cc(CN5CC[C@@H]6C[C@@H]65)cc4C(F)(F)F)C3=O)c2)COC1 (single isomer, unassigned) [Compound 486b] | < 100 | > 1 | 1.51 to 1.75 | 1.51 to 1.75 | > 7.5 | > 7.5 | > 0.201 | ≤ 100 | – | – | – | –
3 | C[C@H](c1cc2c(c(C(F)(F)F)c1)CN(c1cccc(C3([C@H](F)c4nncn4C)COC3)c1)C2=O)N1CCC2(CC2)C1 (single isomer, unassigned) [Compound 516] | < 100 | > 1 | > 1.76 | > 1.76 | > 7.5 | > 7.5 | > 0.201 | ≤ 100 | – | – | – | –
4 | Cn1cnnc1C[C@@]1(c2cccc(N3Cc4c(cc(CN5CCC6(CC6)C5)cc4C(F)(F)F)C3=O)c2)CCOC1 (single isomer, unassigned) [Compound 517a] | < 100 | 0.801 to 1 | 1.01 to 1.3 | 1.01 to 1.3 | 2.51 to 5 | > 7.5 | 0.101 to 0.15 | ≤ 100 | – | – | – | –
5 | Cn1cnnc1C[C@]1(c2cccc(N3Cc4c(cc(CN5CCC6(CC6)C5)cc4C(F)(F)F)C3=O)c2)CCOC1 (single isomer, unassigned) [Compound 517b] | < 100 | > 1 | 1.01 to 1.3 | 1.01 to 1.3 | > 7.5 | > 7.5 | > 0.201 | ≤ 100 | – | – | – | –
6 | Cc1cc(C(=O)Nc2cccc([C@]3(Cc4nncn4C)CCOC3)c2)nc(C2CC2)n1 (single isomer, unassigned) [Compound 534a] | 100 to 300 | 0.601 to 0.8 | 1.01 to 1.3 | 1.01 to 1.3 | 1.01 to 2.5 | 2.51 to 5 | 0.051 to 0.1 | ≤ 300 | – | – | – | –
7 | Cc1cc(C(=O)Nc2cccc([C@@]3(Cc4nncn4C)CCOC3)c2)nc(C2CC2)n1 (single isomer, unassigned) [Compound 534b] | < 100 | 0.801 to 1 | 1.01 to 1.3 | 1.01 to 1.3 | 2.51 to 5 | 2.51 to 5 | 0.101 to 0.15 | ≤ 100 | – | – | – | –
8 | Cn1cnnc1[C@H](F)[C@@](C)(F)c1cccc(N2Cc3c(cc(C4CC4)cc3C(F)(F)F)C2=O)c1 (stereo in doubt) [Compound 483, 6-cyclopropyl-2-[3-[(1S,2S)-1,2-difluoro-1-(4-methyl-4H-1,2,4-triazol-3-yl)propan-2-yl]phenyl]-4-(trifluoromethyl)-2,3-dihydro-1H-isoindol-1-one] | 100 to 300 | 0.601 to 0.8 | 1.01 to 1.3 | 1.01 to 1.3 | < 1 | 1.01 to 2.5 | 0.051 to 0.1 | ≤ 300 | 0.801 to 1 | 1.01 to 1.3 | 1.01 to 2.5 | 0.051 to 0.1
9 | C[C@H](c1cc2c(c(C(F)(F)F)c1)CN(c1cccc(C3([C@@H](F)c4nncn4C)COC3)c1)C2=O)N1CCC2(CC2)C1 (stereo in doubt) [Compound 515, 6-[(1R)-1-{5-azaspiro[2.4]heptan-5-yl}ethyl]-2-(3-{3-[(R)-fluoro(4-methyl-1,2,4-triazol-3-yl)methyl]oxetan-3-yl}phenyl)-4-(trifluoromethyl)-3H-isoindol-1-one] | < 100 | > 1 | > 1.76 | > 1.76 | > 7.5 | > 7.5 | > 0.201 | ≤ 100 | – | – | – | –
10 | C[C@H](Cc1nncn1C)c1cc(N[C@@H](C)CO)nc(N2Cc3c(cccc3C(F)(F)F)C2=O)c1 [Compound 365, 2-(6-((S)-1-hydroxypropan-2-ylamino)-4-((R)-1-(4-methyl-4H-1,2,4-triazol-3-yl)propan-2-yl)pyridin-2-yl)-4-(trifluoromethyl)isoindolin-1-one] | 100 to 300 | 0.601 to 0.8 | 1.01 to 1.3 | 1.01 to 1.3 | 1.01 to 2.5 | 1.01 to 2.5 | 0.051 to 0.1 | ≤ 300 | > 1 | 1.01 to 1.3 | 2.51 to 5 | 0.151 to 0.2
11 | C[C@H](Cc1nncn1C)c1cccc(N2Cc3c(cc([C@@H]4CCCNC4)cc3C(F)(F)F)C2=O)c1 [Compound 382, 2-(3-((R)-1-(4-methyl-4H-1,2,4-triazol-3-yl)propan-2-yl)phenyl)-6-((S)-piperidin-3-yl)-4-(trifluoromethyl)isoindolin-1-one] | 100 to 300 | 0.601 to 0.8 | 1.01 to 1.3 | 1.31 to 1.5 | 2.51 to 5 | 5 to 7.5 | 0.101 to 0.15 | ≤ 300 | > 1 | 1.51 to 1.75 | 5 to 7.5 | > 0.201
12 | CN1CC2CCC1CN2c1cc2c(c(C(F)(F)F)c1)CN(c1cccc(C3(Cc4nncn4C)COC3)c1)C2=O (stereo not shown) [Compound 387, 2-(3-(3-((4-Methyl-4H-1,2,4-triazol-3-yl)methyl)oxetan-3-yl)phenyl)-6-(5-methyl-2,5-diazabicyclo[2.2.2]octan-2-yl)-4-(trifluoromethyl)isoindolin-1-one] | < 100 | 0.801 to 1 | 1.01 to 1.3 | 1.31 to 1.5 | 2.51 to 5 | 5 to 7.5 | > 0.201 | ≤ 100 | – | – | – | –
13 | C[C@H]1CN(C)CCN1c1cc2c(c(C(F)(F)F)c1)CN(c1cccc(C3(Cc4nncn4C)COC3)c1)C2=O [Compound 389, (S)-6-(2,4-Dimethylpiperazin-1-yl)-2-(3-(3-((4-methyl-4H-1,2,4-triazol-3-yl)methyl)oxetan-3-yl)phenyl)-4-(trifluoromethyl)isoindolin-1-one] | < 100 | > 1 | 1.01 to 1.3 | 1.31 to 1.5 | 5 to 7.5 | > 7.5 | > 0.201 | ≤ 100 | – | – | – | –
14 | C[C@@H]1CN(C)CCN1c1cc2c(c(C(F)(F)F)c1)CN(c1cccc(C3(Cc4nncn4C)COC3)c1)C2=O [Compound 390, (R)-6-(2,4-Dimethylpiperazin-1-yl)-2-(3-(3-((4-methyl-4H-1,2,4-triazol-3-yl)methyl)oxetan-3-yl)phenyl)-4-(trifluoromethyl)isoindolin-1-one] | < 100 | > 1 | 1.01 to 1.3 | 1.31 to 1.5 | 2.51 to 5 | > 7.5 | 0.151 to 0.2 | ≤ 100 | – | – | – | –
